Key:
HEK293 cells = experiment: MTT cytotoxicity assay; assay type: cell-based, human
Procedure: HEK293 (human embryonic kidney cells were obtained from American Type Culture Collection (ATCC, Washington D.C.) and cultured as adherent monolayers in a humidified 5% CO2 atmosphere at 37° C. in Minimum Essential Media supplemented with 10% fetal bovine serum (FBS) and 100 U/mL penicillin/streptomycin. HeLa cells were cultured in Dulbecco's Modified Eagle's Medium (DMEM) supplemented with 10% FBS and 100 U/mL penicillin/streptomycin. Cells were checked for contamination monthly using the PlasmoTest™ mycoplasma detection kit. Ventricular cardiomyocytes were isolated from neonatal rats (NRVMs) as previously described (H. M. Piper et al., Piper H. M. (eds), Cell Culture Techniques in Heart and Vessel Research, Springer Verlag: Berlin, 1990). The isolated myocytes were cultured in Ham's F-10 supplemented with 5%/o fetal bovine serum (FBS) and penicillin/streptomycin (100 U/ml) at 37° C. in a 95% air/5% CO2 humidified atmosphere for four days
Cells were seeded at 4000 cells/well in 100 μL/well in a 96-well plate and incubated for 24 hours. The media was removed and replaced with 200 μL of growth media containing varying concentrations of the complex. After 72 hours of incubation, the media was replaced with MEM containing 1 mg/mL of (4,5-dimethylthiazol-2-yl)-2,5-diepheyltetrazolium bromide (MTT). After four hours incubation, the media was removed and the purple formazan crystals were solubilized using 100 μL of a 8/1 DMSO/glycine buffer (pH 10) mixture. The absorbance at 570 nm was measured using a plate reader.
With the new nitrido-bridged ruthenium compounds C-2 and C-3 prepared, MCU-inhibitory properties of these compounds were evaluated and their activities compared to C-1, the oxo-bridged Ru360 analogue of the conventional art (S. R. Nathan et al., Inorg. Chem. 2017, 56, 3123-3126 and S. R. Nathan et al., J. Vis. Exp. 2017, 56527). The cytotoxicity of the complexes in HEK293 cells was first measured using the colorimetric thiazolyl blue tetrazolium bromide (MTT) assay, as well known in the art. […]

[1] = target: T1, mitochondrial calcium uniporter (MCU) (Homo sapiens, UniProt Q8NE86); experiment: Cytoplasmic and mitochondrial Ca2+ dynamics in intact HeLa cells after histamine; assay type: cell-based; design: 30 min) and Rhod-2 AM; endogenous in cells; host or cells: HeLa (intact; some experiments with transfected Ca2+ sensors R-GECO1 and GCamP6-mt, MCU itself not transfected); conditions: for inhibition of MCU-mediated mCa2+ uptake in intact cells: intact HeLa cells, 50 μM for 30 minutes, histamine 100 μM, Rhod-2 AM and GCamP6-mt; for cytosolic calcium dynamics in intact cells: intact cells stimulated with histamine
T1 sequence (Q8NE86 51-351): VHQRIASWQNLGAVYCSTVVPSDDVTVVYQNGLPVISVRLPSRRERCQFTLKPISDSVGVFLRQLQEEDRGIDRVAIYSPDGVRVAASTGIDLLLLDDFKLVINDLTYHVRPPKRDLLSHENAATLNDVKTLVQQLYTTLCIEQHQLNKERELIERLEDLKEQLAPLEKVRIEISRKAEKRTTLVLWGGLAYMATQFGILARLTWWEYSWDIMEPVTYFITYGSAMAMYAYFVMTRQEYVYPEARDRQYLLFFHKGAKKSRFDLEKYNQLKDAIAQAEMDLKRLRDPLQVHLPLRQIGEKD
T1 sequence (Q9H4I9 48-107 partner limits assumed): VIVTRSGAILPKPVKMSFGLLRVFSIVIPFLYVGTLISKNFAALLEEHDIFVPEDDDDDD
Procedure: HeLa cells were loaded with Fluo-4-AM (5 μM; 30 min) and Rhod-2 AM (2 μM; 50 min) in extracellular medium as previously described (F. Perocchi et al, Nature 2010, 467, 291-296). Coverslips were mounted in an open perfusion microincubator at 37° C. and imaged. After 1 minute of baseline recording, histamine (100 μM) was added, and confocal images were recorded every 3 seconds at 488 and 561 nm excitation using a 40× oil objective. Images were analyzed and quantified by using ImageJ (NIH).
HeLa cells were transiently transfected with genetically encoded cytosolic and mitochondrial targeted Ca^2+ sensors R-GECO1 and GCamP6-mt plasmids. After 48 hours, the transfected cells were treated with MCU inhibitors (C1, C-2, and C-3; 50 μM). After 1 minute of baseline recording, histamine (100 μM) was added, and the change of R-GECO1 and GCamP6-mt fluorescence was measured with 488-nm and 561-nm excitation on a confocal microscope equipped with a 40× oil objective. Images were analyzed and quantified by using ImageJ (NIH).
Encouraged by the high cell permeability and mitochondrial selectivity of C-2, the capability of this complex to inhibit MCU-mediated mCa^2+ uptake in intact, non-permeabilized cells was investigated Briefly, HeLa cells were loaded with the cytosolic calcium concentration ([Ca^2+]) indicator Fluo-4 AM and the mitochondrial calcium concentration ([…]) indicator Rhod-2 AM in the presence or absence of C-1, C-2, and C-3 (50 μM). Cells were stimulated with the GPCR agonist histamine (100 μM) to rapidly elevate cCa^2+ levels to induce mCa^2+ uptake (Z. Dong et al., Mol. Cell 2017, 65, 1014-1028).
FIGS. 3A and 3B are graphs showing results of cytosolic ([Ca^2+]e, Fluo-4 AM) and mitochondrial ([Ca^2+]m, Rhod-2 AM) calcium transients in HeLa cells after treatment with histamine (100 μM) that were pretreated with or without C-1, C-2, or C-3 (50 μM) for 30 minutes. FIGS. 3C and 3D are graphs showing results of cytosolic ([Ca^2+]e, R-GECO) and mitochondrial ([Ca^2+]m, GCamP6-mt)) calcium transients in HeLa cells after treatment with histamine (100 μM) that were pretreated with or without C-1, C-2, or C-3 (50 μM) for 30 minutes. HeLa cells were co-transfected with R-GECO1 and GCamP6-mt. 48 hours post-transfection. Data are represented as mean±SEM. *p<0.05. n=3-6.

Compound | toxicity to human cells (HEK293 cells) | inhibition of MCU-mediated mCa2+ uptake in intact cells [1] | inhibition of MCU-mediated mCa2+ uptake in intact cells ([1]; listed as Ru265) | cytosolic calcium dynamics in intact cells [1] | cytosolic calcium dynamics in intact cells ([1]; listed as Ru265) | IC50 (HEK293 cells)
N.N.N.N.N.N.N.N.[Cl-].[Cl-].[N-3].[Ru+4].[Ru+4] [C-2, [Ru2(μ-N)(NH3)8Cl2]Cl3] | low toxicity to human cells | significant inhibition of MCU-mediated mCa^2+ uptake | most effective MCU-inhibition in non-permeabilized cells | normal cytosolic calcium dynamics | without any effect on intracellular Ca^2+ dynamics | –
[Ru2(μ-N)(en)4Cl2]Cl3 [C-3] | – | did not show appreciable inhibition of mCa^2+ uptake | – | – | – | 226 ± 19 µM
